Assay results as given in US20090062338A1, “[…] USE IN TREATING OR PREVENTING CARDIOVASCULAR DISEASE” (priority 2005, published 2009).

Experiments:
[1] = tested on: hepatocyte growth factor; assay: Gene expression in cardiac tissue of mice fed Tempol, chip-based microarray; format: in vivo; settings: 5 mg/g of food from 14 to 31 months of age
Experimental: To assess the effects of Tempol on gene expression, Tempol was administered to experimental mice at a dose of 5 mg/g of food from 14 months to 31 months after birth. Mice receiving the same food without the addition of Tempol were used as a negative control. At the age of 31 months, the experimental animals were sacrificed and the hearts were surgically removed. The expression of a broad spectrum of genes in the cardiac tissue was assessed using chip-based microarray technology. Such chips are well known in the art and are widely used to assess gene expression.

[2] = tested on: Adiponectin, C1Q and collagen domain containing; assay: Gene expression in adipose tissue of mice fed Tempol, Affymetrix MOE430A 2.0 array; format: in vivo; settings: 5 g/kg of diet from 12 through 15 months
Experimental: (§1) In a further gene expression study, Tempol was administered to experimental mice at a dose of 5 g/kg of diet from 12 months through 15 months. Mice receiving the same diet without the addition of Tempol were used as a negative control. At the age of 15 months, the adipose tissue of the experimental animals was obtained. The expression of a broad spectrum of genes in the adipose tissue was assessed using chip-based microarray technology. Specifically, in this case an Affymetrix MOE430A 2.0 array, containing 12,960 genes, was employed. Such chips are well known in the art and are widely used to assess gene expression.

[3] = tested on: Caspase 3; assay: as above; format: in vivo; settings: 5 g/kg of diet from 12 through 15 months
Experimental: as §1

[4] = tested on: adiponectin; assay: Protein level in patient after Tempol treatment; format: in vivo, human; settings: 1500 mg per day for 180 days
Experimental: (§2) A 70-kilogram patient three days post myocardial infarction is administered a dose of 1500 mg of Tempol per day for 180 days. This may be administered in a single dose, or may be administered as a number of smaller doses over a 24-hour period: for example, three 500-mg doses at eight-hour intervals. Following treatment, the protein level of hepatocyte growth factor and adiponectin in the plasma is increased, and the protein level of caspase 3 is decreased.
as §2, with “at risk for” for “three days post”

[5] = tested on: caspase 3; assay: Protein level in patient after Tempol treatment; format: in vivo, human; settings: 1500 mg per day for 180 days
Experimental: as §2
as §2, with “at risk for” for “three days post”

[6] = tested on: hepatocyte growth factor; assay: Protein level in patient after Tempol treatment; format: in vivo, human; settings: 1500 mg per day for 180 days
Experimental: as §2
as §2, with “at risk for” for “three days post”

[7] = tested on: endothelium; settings: angiotensin II infused rats, introduction of Tempol; cited from earlier work
[8] = Example 1: 70-kg patient three days post myocardial infarction
[9] = Example 2: 70-kg patient at risk for myocardial infarction

Q: For CC1(C)CC(O)CC(C)(C)N1[O] [Tempol, 4-hydroxy-2,2,6,6-tetramethylpiperidine-1-oxyl], which “HGF expression, fold change (increase) vs control mice” value [1] is on record?
A: 3.2 fold

Q: What about the “HGF (ORF W12681) expression, TEMPOL-treated mouse tp51” value ([1]; microarray signal) of the same compound?
A: 152

Q: And the “HGF (ORF W12681) expression, TEMPOL-treated mouse tp52” value ([1]; microarray signal)?
A: 151

Q: What about the “HGF (ORF W12681) expression, TEMPOL-treated mouse tp53” value ([1]; microarray signal) of the same compound?
A: 207

Q: And the “Adiponectin expression, fold change (increase) vs control mice” value [2]?
A: 1.22 fold

Q: What about the “Adiponectin expression, mean (Tempol-treated mice)” value ([2]; microarray signal) of the same compound?
A: 33876

Q: What about the “Caspase 3 expression, mean (Tempol-treated mice)” value ([3]; microarray signal) of the same compound?
A: 414

Q: And the “Caspase 3 expression, fold change vs control mice (signed)” value ([3]; negative = decrease)?
A: −1.47 fold

Q: And the “Caspase 3 expression, fold decrease vs control mice” value ([3]; stated as decreased)?
A: 1.47 fold

Q: And the “Protein level of adiponectin in the plasma” value [4, 8]?
A: increased

Q: What about the “Protein level of adiponectin in the plasma” value [4, 9] of the same compound?
A: increased

Q: What about the “Protein level of caspase 3” value [5, 8] of the same compound?
A: decreased

Q: And the “Protein level of caspase 3” value [5, 9]?
A: decreased

Q: What about the “Protein level of hepatocyte growth factor in the plasma” value [6, 8] of the same compound?
A: increased

Q: What about the “Protein level of hepatocyte growth factor in the plasma” value [6, 9] of the same compound?
A: increased

Q: And the “Deleterious effects of angiotensin II on the endothelium” value [7]?
A: ameliorated
